{
  "source": "patent US8883827B2",
  "about": "“Azole derivatives as WTN pathway inhibitors” (Oslo University Hospital HF, priority 2009, dated 2014)",
  "key": {"NEK2(h)": {"molecular_target": "T1, NEK2(h) (Homo sapiens, UniProt P51955)", "T1 construct": "purchased Millipore (KinaseProfiler service)", "T1 sequence (P51955 whole entry)": "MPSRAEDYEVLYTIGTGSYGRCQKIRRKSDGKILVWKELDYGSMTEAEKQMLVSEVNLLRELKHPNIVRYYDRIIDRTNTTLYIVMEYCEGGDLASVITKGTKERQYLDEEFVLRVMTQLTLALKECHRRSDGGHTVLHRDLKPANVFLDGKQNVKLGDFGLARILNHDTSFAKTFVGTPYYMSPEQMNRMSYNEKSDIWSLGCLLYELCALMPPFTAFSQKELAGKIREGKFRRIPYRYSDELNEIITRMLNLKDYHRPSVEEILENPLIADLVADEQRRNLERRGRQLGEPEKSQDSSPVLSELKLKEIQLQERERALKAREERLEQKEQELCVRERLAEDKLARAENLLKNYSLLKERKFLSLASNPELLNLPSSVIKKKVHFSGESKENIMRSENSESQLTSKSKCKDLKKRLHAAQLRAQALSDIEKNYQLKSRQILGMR", "assay": "Kinase screen", "assay_type": "biochemical", "settings": "0.1% DMSO control = 100%"}, "PTP-1B(h)": {"molecular_target": "T2, PTP-1B(h) (Homo sapiens, UniProt P18031)", "T2 construct": "purchased Millipore (KinaseProfiler service)", "T2 sequence (P18031 whole entry)": "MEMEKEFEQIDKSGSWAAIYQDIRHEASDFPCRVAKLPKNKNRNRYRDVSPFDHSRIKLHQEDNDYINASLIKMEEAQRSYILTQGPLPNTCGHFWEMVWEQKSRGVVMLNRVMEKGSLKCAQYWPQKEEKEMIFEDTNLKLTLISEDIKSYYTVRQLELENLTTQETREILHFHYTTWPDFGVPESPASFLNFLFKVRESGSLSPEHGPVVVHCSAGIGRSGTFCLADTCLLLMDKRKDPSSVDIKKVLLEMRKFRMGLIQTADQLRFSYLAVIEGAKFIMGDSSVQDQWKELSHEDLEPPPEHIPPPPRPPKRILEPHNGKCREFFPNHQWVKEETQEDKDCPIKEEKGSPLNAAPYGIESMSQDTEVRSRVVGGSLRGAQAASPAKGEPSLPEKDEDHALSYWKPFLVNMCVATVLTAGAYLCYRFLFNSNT", "assay": "Phosphatase screen", "assay_type": "biochemical", "settings": "0.1% DMSO control = 100%"}, "IRAK4(h)": {"molecular_target": "T3, IRAK4(h) (Homo sapiens, UniProt Q9NWZ3)", "T3 construct": "purchased Millipore (KinaseProfiler service)", "T3 sequence (Q9NWZ3 whole entry)": "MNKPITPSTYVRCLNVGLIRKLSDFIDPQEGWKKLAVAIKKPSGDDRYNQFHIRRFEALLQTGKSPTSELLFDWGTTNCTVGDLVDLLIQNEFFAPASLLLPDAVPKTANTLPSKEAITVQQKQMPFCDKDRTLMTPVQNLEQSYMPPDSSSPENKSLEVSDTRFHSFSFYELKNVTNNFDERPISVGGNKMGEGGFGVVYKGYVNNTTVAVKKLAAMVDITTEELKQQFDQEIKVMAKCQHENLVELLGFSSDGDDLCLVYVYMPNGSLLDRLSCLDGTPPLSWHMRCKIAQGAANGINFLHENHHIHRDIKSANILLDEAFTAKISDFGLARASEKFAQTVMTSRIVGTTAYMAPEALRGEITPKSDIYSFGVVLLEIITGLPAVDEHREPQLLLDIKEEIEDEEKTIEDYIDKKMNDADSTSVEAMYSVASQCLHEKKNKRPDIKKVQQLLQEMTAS", "assay": "Kinase screen", "assay_type": "biochemical", "settings": "0.1% DMSO control = 100%"}, "β-catenin": {"tested_on": "β-catenin", "assay": "Western blot and immunocytochemistry of β-catenin in SW480 cells", "assay_type": "cell-based", "method": "The effect of compound No. 1 on the presence of β-catenin in the nucleus or in the cytoplasm of colorectal cancer SW480 cells was investigated. SW480 cells contain activating mutations in the APC gene, leading to elevated levels of nuclear β-catenin and aberrant canonical Wnt signaling. A Western blot analysis was carried out using cell lysates from compound-treated SW480 cells and an antibody against the active form of β-catenin (non-phosphorylated N-terminal—ABC). In parallel, antibodies were used against total β-catenin (β-catenin), or β-catenin phosphorylated at the N-terminal (-β-catenin) which detects a degradable form of β-catenin.\nSW480 cells were seeded and treated with compound No. 1 as described in Example 25. Cell lysates were immunoblotted using monoclonal active-β-catenin (ABC—Millipore), monoclonal β-catenin (β-catenin—BD Transduction Laboratories™), phospho-β-catenin (pβ-catenin—Cell Signaling Technology) and actin (Sigma). Primary antibodies were visualized with secondary HRP conjugated antibodies (Santa Cruz Biotechnology) and enhanced chemiluminescent substrate (Pierce® ECL Western Blotting Substrate, Thermo Scientific).\nFor immunocytochemical experiments, SW480 cells were seeded and treated as described in Example 24. After 72 hours, cells were fixed in 4% PFA in PBS for 10 minutes. Immunostaining was performed as described in standard protocols. Primary antibody (monoclonal β-catenin, BD Transduction Laboratories™) and secondary antibody (Alexa Fluor® 594, Invitrogen) were diluted 1:1000. The samples were imaged by using a Zeiss Axiovert 200M Fluorescence/Live cell Imaging Microscope with X40 magnification and the same exposure times. Cells were stained with DAPI (4′,6-diamidino-2-phenylindole) according to standard protocols."}, "TAK1(h)": {"molecular_target": "T4, TAK1(h) (Homo sapiens, UniProt O43318)", "T4 construct": "purchased Millipore (KinaseProfiler Service)", "T4 sequence (O43318 1-303 limits assumed)": "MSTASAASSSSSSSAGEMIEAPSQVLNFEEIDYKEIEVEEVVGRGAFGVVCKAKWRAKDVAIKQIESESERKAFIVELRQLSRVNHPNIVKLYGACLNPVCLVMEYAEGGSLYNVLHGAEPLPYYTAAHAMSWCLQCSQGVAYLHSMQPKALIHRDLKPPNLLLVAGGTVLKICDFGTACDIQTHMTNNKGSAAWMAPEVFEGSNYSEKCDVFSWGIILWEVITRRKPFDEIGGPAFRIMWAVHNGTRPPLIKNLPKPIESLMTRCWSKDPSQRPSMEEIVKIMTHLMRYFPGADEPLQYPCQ", "assay": "Kinase screen", "assay_type": "biochemical", "settings": "0.1% DMSO control = 100%"}, "SW480 cells": {"tested_on": "SW480 cells", "assay": "Growth inhibition (GI50) MTS assay", "assay_type": "cell-based", "settings": "Homo sapiens, 72 h", "method": "Growth inhibition curves were prepared using SW480 cells, prepared essentially according to Example 23. SW480 cells (3000 cells per well) were seeded on 96 well plates (eight replicates per treatment). 24 hours later and daily thereafter, cell culture media (including 10% FBS) was mixed with various compound concentrations or with 0.1% DMSO vehicle and then added to the wells. Sixteen wells of seeded control cells, defining incubation time zero (to =24 hour after cell seeding), were incubated with […] substrate in 100 μl of phenol-free D-MEM (Invitrogen) for 2 hours, as described in the CellTiter 96® AQueous Non-Radioactive Cell Proliferation Assay protocol (MTS, Promega). The A490 was recorded. The treatment samples were likewise measured after 72 hours. The following formula was used to determine the single well relative A490 sample values: ((Sample A490−Average A490t0)*100)/(Average A490t720.1% DMSO control−Average A490t0)\nXLfit (idbs) was used to determine the IC50 and GI50 values in inhibition experiments. The data were fit to the following formulae:\nGI50: Eadie-Hofstee Model: fit=(A+((B*x)/((C*(D+1))+x))) inv=(((y−A)*(C*(D+1)))/((A+B)−y)) res=(y−fit)"}, "EGFR(h)": {"molecular_target": "T5, EGFR(h) (Homo sapiens, UniProt P00533)", "T5 construct": "purchased Millipore (KinaseProfiler service)", "assay": "Kinase screen", "assay_type": "biochemical", "settings": "0.1% DMSO control = 100%"}, "[1]": {"tested_on": "Wnt signaling pathway in SW480 cells", "assay": "ST-d1EGFP reporter in SW480 cells (flow cytometry)", "assay_type": "cell-based", "settings": "25 µM compound, 72 h", "method": "3) the SW480 colorectal cell line, which has an aberrant Wnt activity caused by spontaneous mutations in the APC locus, transfected with the construct ST-d1EGFP. In this cell line, d1EGFP reporter is activated without using Wnt-3a CM, i.e. the cell line has permanently “switched on” Wnt signaling pathway.\n100000 ST-d1EGFP SW480 and SW480 CMV-d1EGFP (Clontech) SW480 cells were plated on 12-well plates and 1, 10 or 25 μM of compound No. 1 (or 0.01%, 0.1% or 0.25% DMSO—controls) was added to the cells the following day. After a 72 hour incubation, samples were trypsinized and analysed for d1EGFP expression on a PAS-PPCS flowcytometer and cell sorter (Partec)."}, "IGF-1R(h)": {"molecular_target": "T6, IGF-1R(h) (Homo sapiens, UniProt P08069)", "T6 construct": "purchased Millipore (KinaseProfiler service)", "T6 sequence (P08069 31-1367)": "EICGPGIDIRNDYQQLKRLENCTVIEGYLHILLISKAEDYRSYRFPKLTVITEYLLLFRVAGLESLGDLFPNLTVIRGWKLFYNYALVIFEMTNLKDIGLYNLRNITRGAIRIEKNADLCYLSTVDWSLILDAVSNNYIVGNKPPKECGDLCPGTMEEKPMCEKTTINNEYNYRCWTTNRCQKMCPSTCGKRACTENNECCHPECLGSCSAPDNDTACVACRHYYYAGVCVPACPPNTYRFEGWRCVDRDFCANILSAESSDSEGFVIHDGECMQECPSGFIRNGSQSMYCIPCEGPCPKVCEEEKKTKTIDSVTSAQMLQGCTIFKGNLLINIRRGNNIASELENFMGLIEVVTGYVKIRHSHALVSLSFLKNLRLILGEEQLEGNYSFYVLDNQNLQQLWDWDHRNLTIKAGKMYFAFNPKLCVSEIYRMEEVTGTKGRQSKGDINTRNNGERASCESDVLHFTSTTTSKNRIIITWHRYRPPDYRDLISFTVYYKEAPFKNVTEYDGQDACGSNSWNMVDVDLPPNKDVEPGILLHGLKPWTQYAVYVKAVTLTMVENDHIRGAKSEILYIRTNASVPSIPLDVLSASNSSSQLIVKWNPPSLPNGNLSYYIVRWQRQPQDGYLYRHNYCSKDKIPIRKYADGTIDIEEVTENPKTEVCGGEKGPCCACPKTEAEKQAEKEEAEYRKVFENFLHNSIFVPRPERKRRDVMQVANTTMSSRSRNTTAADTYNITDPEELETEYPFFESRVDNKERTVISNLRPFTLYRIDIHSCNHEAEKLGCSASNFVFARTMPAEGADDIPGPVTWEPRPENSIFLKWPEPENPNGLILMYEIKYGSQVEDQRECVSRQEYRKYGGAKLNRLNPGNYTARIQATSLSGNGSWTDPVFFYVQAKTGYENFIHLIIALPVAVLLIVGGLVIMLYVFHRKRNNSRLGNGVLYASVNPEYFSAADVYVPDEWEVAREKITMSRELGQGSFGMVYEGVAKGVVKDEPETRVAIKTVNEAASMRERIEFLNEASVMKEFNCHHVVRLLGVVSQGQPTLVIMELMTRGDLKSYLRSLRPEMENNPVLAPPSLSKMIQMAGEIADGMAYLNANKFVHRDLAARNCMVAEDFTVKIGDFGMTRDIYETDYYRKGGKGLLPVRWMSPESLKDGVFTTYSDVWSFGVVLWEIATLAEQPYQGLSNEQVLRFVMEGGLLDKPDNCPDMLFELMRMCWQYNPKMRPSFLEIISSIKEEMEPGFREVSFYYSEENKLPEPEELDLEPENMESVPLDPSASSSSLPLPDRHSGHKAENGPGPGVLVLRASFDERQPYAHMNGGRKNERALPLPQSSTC", "assay": "Kinase screen", "assay_type": "biochemical", "settings": "0.1% DMSO control = 100%"}, "JNK3(h)": {"molecular_target": "T7, JNK3(h) (Homo sapiens, UniProt P53779)", "T7 construct": "purchased Millipore (KinaseProfiler service)", "assay": "Kinase screen", "assay_type": "biochemical", "settings": "0.1% DMSO control = 100%"}, "eEF-2K(h)": {"molecular_target": "T8, eEF-2K(h) (Homo sapiens, UniProt O00418)", "T8 construct": "purchased Millipore (KinaseProfiler service)", "assay": "Kinase screen", "assay_type": "biochemical", "settings": "0.1% DMSO control = 100%"}, "[2]": {"molecular_target": "T9, PI3 Kinase (p110b/p85a)(h) (Homo sapiens, UniProt P42338)", "T9 construct": "purchased Millipore (KinaseProfiler service)", "T9 sequence (P42338 whole entry)": "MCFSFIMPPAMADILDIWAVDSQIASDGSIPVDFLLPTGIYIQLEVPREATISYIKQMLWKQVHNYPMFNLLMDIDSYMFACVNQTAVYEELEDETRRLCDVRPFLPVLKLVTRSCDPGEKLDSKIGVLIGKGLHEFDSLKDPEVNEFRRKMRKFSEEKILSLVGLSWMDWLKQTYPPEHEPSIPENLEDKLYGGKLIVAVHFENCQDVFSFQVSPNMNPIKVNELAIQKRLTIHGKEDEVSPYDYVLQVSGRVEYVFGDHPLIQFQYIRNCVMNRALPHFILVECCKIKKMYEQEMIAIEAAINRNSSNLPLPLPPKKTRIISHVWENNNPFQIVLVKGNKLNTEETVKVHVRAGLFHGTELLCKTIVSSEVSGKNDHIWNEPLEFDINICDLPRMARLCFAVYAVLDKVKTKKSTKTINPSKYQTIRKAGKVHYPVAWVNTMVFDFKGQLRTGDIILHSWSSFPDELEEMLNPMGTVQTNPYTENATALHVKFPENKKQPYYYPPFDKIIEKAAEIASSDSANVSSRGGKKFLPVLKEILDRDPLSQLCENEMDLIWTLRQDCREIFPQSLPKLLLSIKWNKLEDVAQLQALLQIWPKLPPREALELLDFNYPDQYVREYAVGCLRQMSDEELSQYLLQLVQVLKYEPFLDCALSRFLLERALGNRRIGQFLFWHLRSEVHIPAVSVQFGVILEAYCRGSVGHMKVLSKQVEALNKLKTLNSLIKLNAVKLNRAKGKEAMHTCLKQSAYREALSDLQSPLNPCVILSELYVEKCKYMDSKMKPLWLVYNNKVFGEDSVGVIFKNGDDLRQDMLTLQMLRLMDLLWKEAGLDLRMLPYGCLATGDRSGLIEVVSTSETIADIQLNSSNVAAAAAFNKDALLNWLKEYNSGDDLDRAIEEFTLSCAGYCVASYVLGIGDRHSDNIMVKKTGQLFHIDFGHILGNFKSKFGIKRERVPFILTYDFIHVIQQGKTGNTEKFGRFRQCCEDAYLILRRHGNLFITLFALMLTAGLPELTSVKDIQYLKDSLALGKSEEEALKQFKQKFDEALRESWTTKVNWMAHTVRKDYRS", "T9 sequence (P27986 whole entry partner)": "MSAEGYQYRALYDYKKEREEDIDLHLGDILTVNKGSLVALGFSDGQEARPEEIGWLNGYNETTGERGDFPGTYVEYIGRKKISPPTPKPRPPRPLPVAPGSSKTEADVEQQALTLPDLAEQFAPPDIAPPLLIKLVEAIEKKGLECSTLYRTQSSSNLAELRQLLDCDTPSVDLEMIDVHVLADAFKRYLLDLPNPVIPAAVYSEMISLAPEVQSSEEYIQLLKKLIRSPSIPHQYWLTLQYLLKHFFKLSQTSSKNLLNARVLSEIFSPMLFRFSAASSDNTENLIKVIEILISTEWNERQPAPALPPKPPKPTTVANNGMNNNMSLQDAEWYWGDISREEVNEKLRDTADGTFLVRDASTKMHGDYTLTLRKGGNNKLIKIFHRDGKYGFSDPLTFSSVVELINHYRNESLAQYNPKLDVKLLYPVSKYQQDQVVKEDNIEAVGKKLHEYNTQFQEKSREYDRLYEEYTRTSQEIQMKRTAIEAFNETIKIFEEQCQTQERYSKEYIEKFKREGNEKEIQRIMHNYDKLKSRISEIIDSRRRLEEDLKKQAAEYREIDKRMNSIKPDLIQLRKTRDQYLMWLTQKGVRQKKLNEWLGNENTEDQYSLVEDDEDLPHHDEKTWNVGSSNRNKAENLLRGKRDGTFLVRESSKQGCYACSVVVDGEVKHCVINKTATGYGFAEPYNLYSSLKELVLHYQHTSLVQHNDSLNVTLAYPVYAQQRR", "assay": "Kinase screen", "assay_type": "biochemical", "settings": "0.1% DMSO control = 100%"}},
  "data": [
    {"smiles": "COc1ccc(-n2c(SCc3nc(-c4ccc(C)cc4)no3)nnc2-c2ccncc2)cc1", "note": "[Compound 1]", "values": [
      {"measurement": "activity at 10 µM", "setting": "NEK2(h)", "result": 94, "unit": "%"},
      {"measurement": "activity at 10 µM", "setting": "PTP-1B(h)", "result": 105, "unit": "%"},
      {"measurement": "activity at 10 µM", "setting": "IRAK4(h)", "result": 98, "unit": "%"},
      {"measurement": "active β-catenin (non-phosphorylated, ABC) in Western blot", "setting": "β-catenin; SW480, 1 μM, 72 hours", "result": "barely detectable"},
      {"measurement": "overall levels of total β-catenin (Western blot)", "setting": "β-catenin; SW480, 72-hour exposure", "result": "reduced"},
      {"measurement": "nuclear total β-catenin (immunofluorescence)", "setting": "β-catenin; SW480, 72-hour incubation", "result": "Reduction"},
      {"measurement": "level of degradable pβ-catenin (Western blot)", "setting": "β-catenin; SW480, 24 hours after adding compound", "result": "temporarily increased"},
      {"measurement": "active β-catenin (ABC) level (Western blot)", "setting": "β-catenin; SW480, 72 h, all concentrations", "result": "even stronger reduction"},
      {"measurement": "activity at 10 µM", "setting": "TAK1(h)", "result": 104, "unit": "%"},
      {"measurement": "GI50", "setting": "SW480 cells", "result": 11.5, "unit": "µM"},
      {"measurement": "activity at 10 µM", "setting": "EGFR(h)", "result": 108, "unit": "%"},
      {"measurement": "reduction of ratio of activity of ST-d1EGFP to CMV-d1EGFP", "setting": "[1]", "result": 63.5, "unit": "%"},
      {"measurement": "activity at 10 µM", "setting": "IGF-1R(h)", "result": 149, "unit": "%"},
      {"measurement": "activity at 10 µM", "setting": "JNK3(h)", "result": 93, "unit": "%"},
      {"measurement": "activity at 10 µM", "setting": "eEF-2K(h)", "result": 117, "unit": "%"},
      {"measurement": "activity at 10 µM", "setting": "[2]", "result": 94, "unit": "%"}
    ]}
  ]
}
